Assay results reported in article PMC10572428, “Possibility of Using Different Calcium Compounds for the Manufacture of Fresh Acid Rennet Cheese from Goat’s Milk” (Foods, 2023).
Like-named read-outs stand apart in the source and are kept apart here. Each block holds one compound with its values, some of them ahead of it.

What was measured:
[1] = pH value of goat's milk after pasteurization with added calcium compound; assay type: physicochemical
Method: (§1) Doses of calcium (5, 10, 15, and 20 mg Ca 100 g^−1 milk), based on the calcium compound’s molecular weight, were added to 100 g of raw goat’s milk in the form of chloride, gluconate, lactate, and carbonate and tested to determine the pH value and thermal stability of milk. A control sample (0 mg Ca 100 g^−1 milk) was also prepared. The samples were heated in a water bath to 25 °C, mixed, and pasteurized (90 °C, 15 s). In the cooled (25 °C) samples of control milk and milk with calcium addition, the pH value was determined using a FiveEasy pH meter with an electrode InLab® Solids Pro-ISM (Mettler Toledo, Greifensee, Switzerland).

[2] = Thermal stability of goat milk proteins during pasteurization (90 °C, 15 s); assay type: physicochemical; settings: doses up to 20 mg Ca per 100 g of milk
Method: as §1

[3] = pH of fresh acid rennet cheese; assay type: physicochemical, goat
Method: Fresh acid rennet cheese was produced following the methodology by Pawlos et al. (Scheme 1). The caprine milk was divided into batches, each containing 2000 g of milk, heated to 25 °C, and treated with varying amounts and dosages of calcium compound. The control sample (0 mg Ca per 100 g of milk) and milk with calcium addition (5, 10, 15, 20 mg Ca per 100 g of milk) were pasteurized in a water bath at 90 °C for 15 s. Subsequently, the milk was cooled to 28 °C, and each batch was inoculated with 0.20% (w/w) of starter culture for 15 min before adding 0.02% (v/w) of rennet. […] Acid rennet curds were then cut into 15 × 15 × 15 mm cubes and heated in a water bath at 35 °C for 1.5 h. Following this, the temperature was increased to 40 °C for 0.5 h. The whey was separated using cheesecloth, and the curds were transferred to molds, pressed (10 N kg^−1, 0.5 h) using a pneumatic cylinder press (Pneumatig, Gdynia, Poland), and refrigerated in labeled individual plastic containers at 4 °C for 24 h prior to analysis. All physicochemical analyses were conducted on ground cheese samples.
A pH meter (FiveEasy Mettler Toledo, Greifensee, Switzerland) and an electrode InLab® Solids Pro-ISM (Mettler Toledo, Greifensee, Switzerland) were used to determine the pH value in cheese.

[4] = set-up: method as in doi:10.1111/j.1471-0307.2010.00613.x; settings: 30 mM calcium added before heating; cited from earlier work
[5] = Texture profile analysis (TPA) of cheese; assay type: physicochemical, goat
Method: Fresh acid rennet cheese was produced following the methodology by Pawlos et al. (Scheme 1). The caprine milk was divided into batches, each containing 2000 g of milk, heated to 25 °C, and treated with varying amounts and dosages of calcium compound. The control sample (0 mg Ca per 100 g of milk) and milk with calcium addition (5, 10, 15, 20 mg Ca per 100 g of milk) were pasteurized in a water bath at 90 °C for 15 s. Subsequently, the milk was cooled to 28 °C, and each batch was inoculated with 0.20% (w/w) of starter culture for 15 min before adding 0.02% (v/w) of rennet. The mixture was stirred and incubated at 28 °C until the pH reached 4.60 (±0.50) in a Cooled Incubator ILW 115 (POL-EKO Aparatura, Wodzisław Śląski, Poland). Acid rennet curds were then cut into 15 × 15 × 15 mm cubes and heated in a water bath at 35 °C for 1.5 h. Following this, the temperature was increased to 40 °C for 0.5 h. The whey was separated using cheesecloth, and the curds were transferred to molds, pressed (10 N kg^−1, 0.5 h) using a pneumatic cylinder press (Pneumatig, Gdynia, Poland), and refrigerated in labeled individual plastic containers at 4 °C for 24 h prior to analysis. All physicochemical analyses were conducted on ground cheese samples.
The texture profile analysis test (TPA) was performed with a CT3 Texture Analyzer and Texture Pro CT 1.2 software (Brookfield AMETEK, Middleboro, MA, USA). Before testing, cheese samples were cut (20 × 20 × 20 mm) and kept at a temperature of 10 °C ± 1 °C. Compression test was performed using a plastic plunger type TA3/100 (25.4 mm diameter) and configured with the following parameters: distance 15 mm, measurement speed 5 mm s^−1, contact load 1.00 N, and hold time 1 s. The TPA test was applied to measure cheese hardness (N), adhesiveness (mJ), cohesiveness, and springiness (mm).

[6] = set-up: method as in doi:10.21608/jfds.2019.54698; settings: cited from earlier work

SMILES: O=C([O-])[O-].[Ca+2] [Carbonate, calcium carbonate]
increase of milk pH value compared to the control sample [1]: 0.11
thermal stability of milk during pasteurization [2]: not reduced
cheese pH value higher than the control cheese [3]: 0.19

reduction of milk pH value compared to the control sample ([1]; greatest reduction): 0.23
reduction of milk pH ([1]; lowest dose of calcium, 5 mg 100 g^−1): 0.17
thermal stability of milk during pasteurization [2]: not reduced
Springiness ([5]; 5 mg Ca 100 g^−1 of milk): 1.27 mm
SMILES: [Ca+2].[Cl-].[Cl-] [Chloride, Calcium chloride]
reduction of pH of cow's milk [4]: up to 0.64
pH of Karish cheese ([6]; 200 mg 100 mL^−1 added to milk): 4.69
pH of Karish cheese ([6]; 300 mg 100 mL^−1 added to milk): 4.50

thermal stability of milk during pasteurization [2]: not reduced
pH ([3]; cheese, 20 mg Ca 100 g^−1 of milk): 4.61
Cohesiveness ([5]; 15 mg Ca 100 g^−1 of milk): 0.30
Springiness ([5]; 15 mg Ca 100 g^−1 of milk): 3.94 mm
SMILES: O=C([O-])[C@H](O)[C@@H](O)[C@H](O)[C@H](O)CO.O=C([O-])[C@H](O)[C@@H](O)[C@H](O)[C@H](O)CO.[Ca+2] [Gluconate, calcium gluconate]

thermal stability of milk during pasteurization [2]: not reduced
SMILES: CC(O)C(=O)[O-].CC(O)C(=O)[O-].[Ca+2] (stereo not drawn) [Lactate, calcium lactate]
